Values quoted from earlier work in patent US20070028930A1, “Active agent and formulations to minimize or alleviate bladder urgency and irritation and/or to enhance sexual function” (Delithe Natural Products Inc., priority 2005, published 2007).

Tested on: bladder
Conditions: 10 mg/kg dose, rats

CNCC[C@H](Oc1cccc2ccccc12)c1cccs1 [Duloxetine]
efficacy in in vivo bladder studies: effective
